Data: patent US20230053688A1, “METHODS TO ALTER LATENCY IN EBV+ MALIGNANCIES” (Cornell University, priority 2020, published 2023)
Where a name gives a salt, the structure may show the parent alone. Read-outs that look alike come from different tables or passages of the source.

Tested on: LMP1 expression in Kem I cells
Assay: microbe, parasite or virus in culture
Assay type: cell-based, EBV
Conditions: for fold induction at 2.5 µM: human gammaherpesvirus 4, 48 h
[1] = Kem I cells, 2.5 uM, 48 hours, average of replicates 1 and 2
[2] = Kem I cells, 2.5 uM, 48 hours, fold change in LMP1 transcript vs vehicle
[3] = read-out: Average LMP1 Fold Increase, Kem I cells, 2.5 uM, 48 hours, average of replicates 1 and 2
[4] = read-out: Replicate 1-LMP1 Fold Increase, Kem I cells, 2.5 uM, 48 hours, fold change in LMP1 transcript vs vehicle
[5] = read-out: Replicate 2-LMP1 Fold Increase, Kem I cells, 2.5 uM, 48 hours, fold change in LMP1 transcript vs vehicle

Row | Compound | Average LMP1 Fold Increase [1] | Replicate 1-LMP1 Fold Increase [2] | Replicate 2-LMP1 Fold Increase [2] | also measured
1 | CN1C(=O)C(Cc2c[nH]c3ccccc23)NC1=S (stereo not drawn) [Necrostatin-1] | 1.08 | 0.99 | 1.17 | –
2 | CN(C)CCc1c[nH]c2ccc(Cn3cncn3)cc12 [Rizatriptan Benzoate] | – | – | – | fold induction at 2.5 µM [3]: 0.15; fold induction at 2.5 µM [4]: 0.1; fold induction at 2.5 µM [5]: 0.2
3 | CC(C)OC(=O)OCOP(=O)(CO[C@H](C)Cn1cnc2c(N)ncnc21)OCOC(=O)OC(C)C [Tenofovir Disoproxil Fumarate] | – | – | – | fold induction at 2.5 µM (read-out: Average LMP1 Fold Increase, Kem I cells, dose 2.5 uM, 48 hours, LMP1 transcript by in-well qRT-PCR, average of the two replicates): 0.56; fold induction at 2.5 µM (read-out: Replicate 1-LMP1 Fold Increase, Kem I cells, dose 2.5 uM, 48 hours, LMP1 transcript by in-well qRT-PCR, screen replicate 1): 0.21; fold induction at 2.5 µM (read-out: Replicate 2-LMP1 Fold Increase, Kem I cells, dose 2.5 uM, 48 hours, LMP1 transcript by in-well qRT-PCR, screen replicate 2): 0.9
4 | Cc1ccc(NC(=O)c2ccc(CN3CCN(C)CC3)cc2)cc1Nc1nccc(-c2cccnc2)n1 [Imatinib (STI571)] | 0.42 | 0.60 | 0.25 | –
5 | O=C(NCc1cccc(O)c1)Nc1nc(-c2ccncc2)cs1 [RKI-1447] | 0.54 | 0.75 | 0.33 | –
6 | NC(=O)C1CCCc2c1[nH]c1ccc(Cl)cc21 (stereo not drawn) [EX 527 (Selisistat)] | 0.81 | 0.24 | 1.38 | –
7 | CC(C)(Cc1ccc2ccccc2c1)NC[C@@H](O)COc1cccc(Cl)c1C#N [NPS-2143] | 0.74 | 0.87 | 0.62 | –
8 | COc1cc(-n2c(=S)[nH]c3ccccc3c2=O)c(Cl)cc1Cl [Mdivi-1] | 0.64 | 0.51 | 0.77 | –
9 | Nc1cccc(-c2cc3c(Oc4cccc(O)c4)ncnc3[nH]2)c1 [TWS119] | – | – | – | Average LMP1 Fold Increase (Kem I cells, dose 2.5 uM, 48 hours, LMP1 transcript by in-well qRT-PCR, average of the two replicates): 0.56 fold; Replicate 1-LMP1 Fold Increase (Kem I cells, dose 2.5 uM, 48 hours, LMP1 transcript by in-well qRT-PCR, screen replicate 1): 0.62 fold; Replicate 2-LMP1 Fold Increase (Kem I cells, dose 2.5 uM, 48 hours, LMP1 transcript by in-well qRT-PCR, screen replicate 2): 0.49 fold
10 | CCC(CC)(NC(=O)C(C)C)C(=O)N[C@@H](CCCN=C(N)N)C(=O)NC1(C(=O)NC(c2ccc(F)cc2)c2ccc(F)cc2)CCCC1 [MM-102] | 0.27 | 0.27 | 0.27 | –
11 | O=C1C(=O)N(Cc2ccc(Cl)c(Cl)c2)c2ccccc21 [Apoptosis Activator 2] | 0.82 | 0.87 | 0.78 | –
12 | CC(C)NC[C@@H](C(=O)N1CCN(c2ncnc3c2[C@H](C)C[C@H]3O)CC1)c1ccc(Cl)cc1 [GDC-0068] | 0.27 | 0.27 | 0.27 | –
13 | Fc1cc(F)c2c(c1)[C@H]1C=CC[C@H]1C(c1cccnc1)N2 (mixture of isomers) [Golgicide A] | 0.27 | 0.34 | 0.19 | –
14 | CC(C)N(CCCNC(=O)Nc1ccc(C(C)(C)C)cc1)C[C@H]1O[C@@H](n2cc(Br)c3c(N)ncnc32)[C@H](O)[C@@H]1O [SGC 0946] | – | – | – | fold induction at 2.5 µM [3]: 0.29; fold induction at 2.5 µM [4]: 0.26; fold induction at 2.5 µM [5]: 0.31
15 | COc1cc(Br)c(Nc2nc(-c3c(C)nc4ncccn34)cs2)c(Br)c1 [PTC-209] | – | – | – | Average LMP1 Fold Increase: 0.90; Replicate 1-LMP1 Fold Increase: 0.34; Replicate 2-LMP1 Fold Increase: 1.46
16 | O=C(/C=C/c1ccccc1)NC(NC(=S)Nc1ccc(Cl)cc1)C(Cl)(Cl)Cl (stereo not drawn) [Sal003] | 0.64 | 0.76 | 0.53 | –
17 | C[C@@H](Oc1cc(-n2cnc3ccc(CN4CCN(C)CC4)cc32)sc1C(N)=O)c1ccccc1C(F)(F)F [GSK461364] | 1.62 | 1.73 | 1.50 | –
18 | CC#CCn1c(N2CCC[C@@H](N)C2)nc2c1c(=O)n(Cc1nc(C)c3ccccc3n1)c(=O)n2C [Linagliptin] | – | – | – | fold induction at 2.5 µM [3]: 0.91; fold induction at 2.5 µM [4]: 1.01; fold induction at 2.5 µM [5]: 0.81
